The test system of data set [1] is HT-29. Nature of the data set: cells. The settings on record: Homo sapiens, HT-29, 72 h.
Data set [2] is filed under the species Bos taurus. Nature of the data set: Displacement of [3H]colchicine from bovine brain tubulin at 5 uM by DEAE-cellulose filter method relative to control. It counts as tissue-based. Background: Displacement assays read how much labelled ligand stays bound in the presence of the test substance.
The species entered for data set [3] is Bos taurus. Nature of the data set: Displacement of [3H]colchicine from bovine brain tubulin at 0.5 uM by DEAE-cellulose filter method relative to control. In kind it is tissue-based.
Data set [4] relates to HL-60. Description: Antiproliferative activity against human HL-60 cells assessed as reduction in cell viability after 72 hrs by MTT assay. In kind it is functional, cell-based. The settings on record: HL-60, 72 h.
Data set [5] can be described thus: Inhibition of bovine brain tubulin polymerization incubated for 15 mins followed by GTP addition and measured after 20 mins by spectrophotometric method. It counts as tissue-based, Bos taurus.
The subject of data set [6] is SEM cells. Nature of the data set: Antiproliferative activity against human SEM cells assessed as reduction in cell viability after 72 hrs by MTT assay. It counts as functional, cell-based. On the technique in general: Tetrazolium dyes change colour on reduction, which living cells bring about.
The subject of data set [7] is A549. Nature of the data set: cells. The settings on record: Homo sapiens, A549, 72 h.
Description: Antiproliferative activity against human A549 cells assessed as reduction in cell viability after 72 hrs by MTT assay
For data set [8], the system named is CCRF-CEM. Nature of the data set: Antiproliferative activity against human CCRF-CEM cells assessed as reduction in cell viability after 72 hrs by MTT assay. In kind it is functional, cell-based.
For data set [9], the system named is HeLa. Description: cells. The settings on record: Homo sapiens, 72 h.
Description: Antiproliferative activity against human HeLa cells assessed as reduction in cell viability after 72 hrs by MTT assay
Data set [10] relates to SGC-7901. Nature of the data set: Antiproliferative activity against human SGC-7901 cells assessed as reduction in cell viability after 72 hrs by MTT assay. It counts as functional, cell-based. The settings on record: SGC-7901, 72 h.
Data set [11] concerns HT-1080. Nature of the data set: Antiproliferative activity against human […] cells assessed as reduction in cell viability after 72 hrs by MTT assay. The settings on record: HT-1080, 72 h. It counts as functional, cell-based.
For data set [12], the target named is Tubulin. Description: Inhibition of tubulin (unknown origin) polymerization incubated for 90 mins by fluorescence-based assay. It counts as protein-complex assay, Homo sapiens.
The subject of data set [13] is KB. Description: Antiproliferative activity against human KB cells assessed as reduction in cell viability after 72 hrs by MTT assay. In kind it is functional, cell-based.
The target of data set [14] is Cyclin-dependent kinase 1 (Homo sapiens) (UniProt P06493). Description: Inhibition of cdc2 phosphorylation at Y15 residues in human HeLa cells at 25 to 50 nM after 24 to 48 hrs by Western blot analysis. In kind it is cell-based. The settings on record: dose 25-50 nM, time 24-48 hrs. For orientation: A western blot detects proteins with antibodies after separation by electrophoresis.

The subject of data set [15] is EO771. Description: Antitumour activity against mouse EO771 cells allografted in ip dosed C57BL/6 mouse assessed as reduction in tumor mass. It counts as functional, organism-based. The settings on record: dose lower 5.0 mg/kg, dose upper […].
Data set [16] deals with HeLa. Description: Induction of ROS generation in human HeLa cells assessed as increase in DCF fluorescence at 50 nM after 24 to 48 hrs by H2-DCFDA staining based flow cytometric analysis. The settings on record: time 24-48 hrs. In kind it is functional, cell-based.
The subject of data set [17] is HT-29. Nature of the data set: Induction of cell cycle arrest in human HT-29 cells assessed as decrease in accumulation at G1 phase at 1 to 100 nM after 24 hrs by propidium iodide staining based flow cytometric analysis. It counts as functional. The settings on record: dose 1-100 nM.
Data set [18] has as its system HeLa. Description: Induction of apoptosis in human HeLa cells at 50 nM after 24 to 48 hrs by annexinV-FITC/propidium iodide staining based flow cytometric analysis. In kind it is functional, cell-based. The settings on record: time 24-48 hrs.
The subject of data set [19] is HeLa. Nature of the data set: Induction of cell cycle arrest in human HeLa cells assessed as increase in accumulation at G2/M phase after 24 hrs by propidium iodide staining based flow cytometric analysis. It counts as functional. The settings on record: dose 1-100 nM.
Data set [20] relates to HeLa. Nature of the data set: Induction of apoptosis in human HeLa cells assessed as increase in cleaved PARP level at 25 nM after 24 hrs by Western blot analysis. It counts as functional, cell-based.
Data set [21] has as its system HeLa. Description: Induction of cell cycle arrest in human HeLa cells assessed as decrease in cdc25c protein expression at 50 nM after 24 to 48 hrs by Western blot analysis. It counts as functional, cell-based. The settings on record: time 24-48 hrs.
Data set [22] deals with HeLa. Nature of the data set: Induction of apoptosis in human HeLa cells assessed as decrease in cleaved Mcl-1 protein expression at 50 nM after 24 to 48 hrs by Western blot analysis. The settings on record: time 24-48 hrs. In kind it is functional, cell-based.
Data set [23] deals with HeLa. Nature of the data set: Induction of cell cycle arrest in human HeLa cells assessed as increase in cyclin B1 protein expression at 50 nM after 24 to 48 hrs by Western blot analysis. It counts as functional, cell-based. The settings on record: time 24-48 hrs.
The test system of data set [24] is HeLa. Nature of the data set: Induction of cell cycle arrest in human HeLa cells assessed as decrease in accumulation at G1 phase at 1 to 100 nM after 24 hrs by propidium iodide staining based flow cytometric analysis. In kind it is functional. The settings on record: dose 1-100 nM.
In data set [25] the test system is HT-29. Description: Induction of cell cycle arrest in human HT-29 cells assessed as decrease in accumulation at S phase at 1 to 100 nM after 24 hrs by propidium iodide staining based flow cytometric analysis. It counts as functional. The settings on record: dose 1-100 nM.
The test system of data set [26] is HeLa. Description: Induction of apoptosis in human HeLa cells assessed as decrease in cleaved XIAP protein expression at 50 nM after 24 to 48 hrs by Western blot analysis. In kind it is functional, cell-based. The settings on record: time 24-48 hrs.
Data set [27] deals with HeLa. Nature of the data set: Induction of apoptosis in human HeLa cells assessed as decrease in cleaved Bcl-2 protein expression at 50 nM after 24 to 48 hrs by Western blot analysis. It counts as functional, cell-based. The settings on record: time 24-48 hrs.
For data set [28], the system named is HeLa. Description: Induction of cell cycle arrest in human HeLa cells assessed as decrease in accumulation at S phase at 1 to 100 nM after 24 hrs by propidium iodide staining based flow cytometric analysis. It counts as functional. The settings on record: dose 1-100 nM.
The subject of data set [29] is PBL. Description: Cytotoxicity against human PBL cells assessed reduction in cell viability after 72 hrs by MTT assay. In kind it is cell-based.
For data set [30], the system named is PBL. Nature of the data set: Cytotoxicity against PHA-induced human PBL cells assessed reduction in cell viability after 72 hrs by MTT assay. It counts as cell-based.
The nature of data set [31]: Toxicity in C57BL/6 mouse allografted with mouse EO771 cells assessed as reduction in body weight at 15 mg/kg, ip. It counts as organism-based. The settings on record: in vivo.
For data set [32], the system named is HT-29. Description: Induction of cell cycle arrest in human HT-29 cells assessed as increase in accumulation at G2/M phase after 24 hrs by propidium iodide staining based flow cytometric analysis. In kind it is functional. The settings on record: dose 1-100 nM.
The subject of data set [33] is EO771. Nature of the data set: Antitumour activity against mouse EO771 cells allografted in C57BL/6 mouse assessed as reduction in tumor volume at 5 mg/kg, ip. It counts as functional, organism-based.

The source made the active and inactive calls. The calls are words filed in the database; no cut-off is given here.

Chain of Cyclin-dependent kinase 1 (Homo sapiens) (P06493 whole entry, looked up): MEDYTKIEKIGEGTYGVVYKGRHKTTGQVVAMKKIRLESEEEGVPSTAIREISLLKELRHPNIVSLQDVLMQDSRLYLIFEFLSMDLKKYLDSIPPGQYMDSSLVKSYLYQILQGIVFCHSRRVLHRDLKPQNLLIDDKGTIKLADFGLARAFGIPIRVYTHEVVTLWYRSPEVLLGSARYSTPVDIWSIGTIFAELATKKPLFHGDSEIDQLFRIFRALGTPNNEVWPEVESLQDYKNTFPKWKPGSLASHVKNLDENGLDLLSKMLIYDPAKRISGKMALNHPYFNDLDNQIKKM

The term IC50 denotes the concentration that gives 50% inhibition. By inhibition is commonly meant the share of the control response that was lost under treatment. Take `CCOc1ccc(-c2c[nH]cc2-c2cc(OC)c(OC)c(OC)c2)cc1`: the IC50 in data set [1] amounted to 42 nM; in [4], 149 nM; in [5], 820 nM; in [6], 2.8 nM; in data set [7], 0.081 µM; in [8] it was 16.6 nM. Moreover, in data set [9], half-maximal inhibition (IC50) required 37 nM. Besides, the inhibition is 92% in data set [2] and 80% in data set [3].

`CCOc1ccc(-c2c[nH]cc2-c2cc(OC)c(OC)c(OC)c2)cc1Cl`: the IC50 came to 64 nM in data set [1]; 144 nM in data set [4]; 710 nM in data set [5]; 39 nM in data set [6]; 0.079 µM in [7]; 153 nM in [8]. Half-maximal inhibition in data set [9] (IC50) was put at 37 nM. Moreover, the values for the inhibition in data set [2] and in [3] were 90% and 68%, respectively.

Turning to `CCOc1ccc(-c2cccn2-c2cc(OC)c(OC)c(OC)c2)cc1Cl`, the IC50 turned out to be 730 nM in data set [1]; 390 nM in data set [4]; 1300 nM in data set [5]; 100 nM in data set [6]; 8.4 µM in [7]; 2920 nM in data set [8]. Also, in data set [9], inhibition was half-maximal at 350 nM (IC50). In [2], this compound had an inhibition of 68%.

Consider `COc1ccc(-n2cccc2-c2cc(OC)c(OC)c(OC)c2)cc1N`, for which the IC50 in [10] came to 390 nM; in data set [11] it was 70 nM; in data set [12], 10 µM; in data set [13], 45 nM.

Consider `COc1cc(-n2cccc2-c2ccc(C)cc2)cc(OC)c1OC`, for which the IC50 in [1] worked out at 3910 nM; in [4], 350 nM; in [5], 1600 nM; in data set [6], 270 nM; in data set [7], 9.62 µM; in data set [8], 2430 nM. In [9], this compound had an IC50 of 3220 nM. In data set [2], this compound showed an inhibition of 60%.

Regarding `COc1cc(-c2cccn2-c2ccc(C)cc2)cc(OC)c1OC`, the IC50 is 5220 nM in [1]; 630 nM in data set [4]; 2400 nM in data set [5]; 140 nM in data set [6]; > 10 µM in [7]; 2410 nM in data set [8]. The 50% inhibitory concentration (IC50) in data set [9] was 3310 nM. Besides, in [2], the inhibition came to 55%.

On to `CCOc1ccc(-n2cccc2-c2cc(OC)c(OC)c(OC)c2)cc1`, for which the IC50 in [1] was 5520 nM; in data set [4], 430 nM; in data set [5], 2300 nM; in data set [6], 270 nM; in data set [7] it was > 10 µM; in data set [8], 3020 nM. The compound further displayed an IC50 in [9] of 3420 nM. For the same compound, in [2], the inhibition came out at 57%.

For `COc1ccc(-c2cccn2-c2cc(OC)c(OC)c(OC)c2)cc1F`, the IC50 is 4120 nM in data set [1]; 370 nM in data set [4]; 2600 nM in [5]; 200 nM in [6]; 9.01 µM in [7]; 1710 nM in data set [8]. Further, it took 6120 nM to reach half-maximal inhibition in data set [9] (IC50). Besides, in [2], the inhibition amounted to 64%.

In the case of `CCOc1ccc(-c2c[nH]cc2-c2cc(OC)c(OC)c(OC)c2)cc1F`, the inhibition result in [14] was “Active”. Also, the Activity entry in [15] is “Dose-dependent effect”; in data set [19] it was “Dose-dependent effect”; in data set [31], “Non-Toxic”; in data set [32] it was “Dose-dependent effect”; in [33], “Dose-dependent effect”. Further, the IC50 in data set [1] was 28 nM; in [4] it was 168 nM; in [5], 660 nM; in data set [6] it was 1.7 nM; in data set [29] it was > 10 µM; in data set [30], > 10 µM. In addition, the IC50 in data set [7] stood at 0.028 µM; in [8] it was 7.5 nM; in data set [9] it was 26 nM. Besides, the outcome in data set [16], in [17], in data set [18], in [20], in [21] and in [22] was Active. In addition, the result in data set [23], in data set [24], in [25], in data set [26], in [27] and in [28] was Active. Also, the inhibition in [2] is 93%; in data set [3], 83%.

The values are drawn from ChEMBL document CHEMBL4732189, “A facile synthesis of diaryl pyrroles led to the discovery of potent colchicine site antimitotic agents” (Eur J Med Chem, 2021).
